{"source": "patent US10493087B2", "about": "“Sialylation-increasing therapies for diseases associated with oxidative stress” (THE UNITED STATES OF AMERICA, AS REPRESENTED BY THE …, priority 2015, dated 2019)", "key": {"GNE Myopathy myotubes": {"tested_on": "GNE Myopathy myotubes", "test": "Cell viability assay under pro-oxidants (propidium iodide/Hoechst co-staining)", "assay_type": "cell-based, mice", "conditions": "treated GNE Myopathy myotubes under menadione exposure", "procedure": "Cell cultures and myotubes analysis: Myocytes from Gne^−/−hGNED176V-Tg mice and littermate controls were proliferated in DMEM containing 20% fetal bovine serum and 1% chicken embryo extracts in a 5% CO2 and induced to differentiation in a serum free medium, OPTIPRO™ SFM (Gibco), to make the cells hyposialylated. Where indicated, myotubes were treated with 5 mM NeuAc (Japan Food and Liquor Alliance) or 5 mM NAC (Sigma) for 72 h.\nFor the cell viability assay, myotubes were exposed to H2O2 for 24 h and to menadione for 6 h before staining. Nuclear staining with Hoechst 33342 (Thermo Scientific) and propidium iodide (PI) (Dojindo) was used for morphological assessment of apoptosis by fluorescence microscopy (Lee and Shacter, Journal of Biological Chemistry. 1999; 274:19792-19798). Minimum 200 nuclei were counted and cell viability was calculated by the exclusion of PI-stained nuclei from Hoechst 33342-stained nuclei."}, "Gne−/−hGNED176V-Tg mice [1]": {"tested_on": "Gne−/−hGNED176V-Tg mice", "test": "Fiber diameter analysis of gastrocnemius muscles", "assay_type": "in vivo", "conditions": "for Mean fiber diameter: gastrocnemius", "procedure": "N-Acetylcysteine (NAC) Treatment Protocols: […] were randomly divided into high dose NAC (n=13), low dose NAC (n=13), or untreated control (n=17) groups. […] There was no difference in water consumption between mice receiving NAC supplemented water or regular drinking water. […] Three littermates groups (high dose NAC; n=7, low dose NAC; n=7, or untreated control; n=6) were treated in the same way. Fiber diameter analysis: Muscle tissues were processed according to previous protocols (8-10). For the morphometric analysis, we stained frozen transverse sections (6 μm) of gastrocnemius muscles with rabbit polyclonal antibody to caveolin 3 (BD Transduction Laboratories), followed by Alexa fluor-conjugated goat IgG antibody to rabbit (Invitrogen). Five randomly selected images per mouse were used to measure fiber diameters using ImageJ software (NIH). Minimal inner diameters of 1,000 myofibers from each mouse were measured."}, "Gne−/−hGNED176V-Tg mice [2]": {"tested_on": "Gne−/−hGNED176V-Tg mice", "test": "Muscle contractile properties analysis (gastrocnemius)", "assay_type": "in vivo", "conditions": "for Peak isometric twitch force (Pt) / Maximum tetanic force (Po): gastrocnemius; for Peak isometric twitch force (Pt): untreated 167.1±6.0; for Maximum tetanic force (Po): untreated 526.7±24.1; for Specific isometric force (Pt/CSA): untreated 16.3±2.6; for Specific tetanic force (Po/CSA): untreated 51.4±8.9", "procedure": "N-Acetylcysteine (NAC) Treatment Protocols: […] were randomly divided into high dose NAC (n=13), low dose NAC (n=13), or untreated control (n=17) groups. […] There was no difference in water consumption between mice receiving NAC supplemented water or regular drinking water. […] Three littermates groups (high dose NAC; n=7, low dose NAC; n=7, or untreated control; n=6) were treated in the same way. Muscle contractile properties analysis: The contractile properties of the gastrocnemius and tibialis anterior muscles were measured according to previous protocol ([…] et al., Nat Med. 2009; 15:690-695; […] et al., Physiol Genomics. 2008; 35:106-115). After the mouse was anesthetized with intraperitoneal sodium pentobarbital (50 mg per kg body weight), the entire skeletal muscles were isolated along with the proximal bone of origin intact. Then the muscle was mounted in a vertical chamber and connected to a force-displacement and length servo system. […] With the muscle held at L0 and duration changed to 3 ms, the force developed during trains of stimulation pulses (10 to 100 Hz) was recorded and the maximum absolute tetanic force (Po) was determined. Absolute force was normalized with the physiologic cross-sectional area (CSA; muscle weight divided by the product of L0 and 1.066 g/cm^3) to obtain specific force (Pt/CSA and Po/CSA)."}}}
{"smiles": "CC(=O)N[C@@H](CS)C(=O)O", "note": "[NAC, N-acetylcysteine]", "values": [{"measurement": "Cell viability compared to littermate myotubes", "setting": "GNE Myopathy myotubes", "value": "even better"}, {"measurement": "Mean fiber diameter", "setting": "Gne−/−hGNED176V-Tg mice [1]; HD group 1.5 g/kg per day, p<0.05 vs untreated 31.7±0.8", "value": "35.2±1.2", "unit": "μm"}, {"measurement": "Mean fiber diameter", "setting": "Gne−/−hGNED176V-Tg mice [1]; LD group 0.15 g/kg per day, p<0.01 vs untreated 31.7±0.8", "value": "35.7±0.8", "unit": "μm"}, {"measurement": "Average fiber diameters in healthy control mice", "setting": "Gne−/−hGNED176V-Tg mice [1]; some healthy control (littermate) mice with NAC supplement", "value": "increased"}, {"measurement": "Peak isometric twitch force (Pt)", "setting": "Gne−/−hGNED176V-Tg mice [2]; HD group 1.5 g/kg per day", "value": "228.5±15.0", "unit": "mN"}, {"measurement": "Maximum tetanic force (Po)", "setting": "Gne−/−hGNED176V-Tg mice [2]; HD group 1.5 g/kg per day", "value": "687.5±52.4", "unit": "mN"}, {"measurement": "Specific isometric force (Pt/CSA)", "setting": "Gne−/−hGNED176V-Tg mice [2]; HD group 1.5 g/kg per day", "value": "22.5±5.1", "unit": "mN/mm^2"}, {"measurement": "Specific tetanic force (Po/CSA)", "setting": "Gne−/−hGNED176V-Tg mice [2]; HD group 1.5 g/kg per day", "value": "67.5±15.7", "unit": "mN/mm^2"}, {"measurement": "Peak isometric twitch force (Pt)", "setting": "Gne−/−hGNED176V-Tg mice [2]; LD group 0.15 g/kg per day", "value": "233.6±10.0", "unit": "mN"}, {"measurement": "Maximum tetanic force (Po)", "setting": "Gne−/−hGNED176V-Tg mice [2]; LD group 0.15 g/kg per day", "value": "735.0±43.0", "unit": "mN"}, {"measurement": "Specific isometric force (Pt/CSA)", "setting": "Gne−/−hGNED176V-Tg mice [2]; LD group 0.15 g/kg per day", "value": "23.4±3.3", "unit": "mN/mm^2"}, {"measurement": "Specific tetanic force (Po/CSA)", "setting": "Gne−/−hGNED176V-Tg mice [2]; LD group 0.15 g/kg per day", "value": "73.5±13.5", "unit": "mN/mm^2"}, {"measurement": "Increase of absolute contractile forces (Pt and Po) in littermate mice", "setting": "Gne−/−hGNED176V-Tg mice [2]; littermate control mice with NAC supplement", "value": "not statistically significant"}]}
